These results are taken from US8299111B2, “Compounds which modulate the CB2 receptor” (Boehringer Ingelheim International GmbH, priority 2006, dated 2012).

The target of the assay is T1, human CB2R (Homo sapiens, UniProt P34972).
T1 construct: host or cells: CHO cells
T1 sequence (P34972 whole entry): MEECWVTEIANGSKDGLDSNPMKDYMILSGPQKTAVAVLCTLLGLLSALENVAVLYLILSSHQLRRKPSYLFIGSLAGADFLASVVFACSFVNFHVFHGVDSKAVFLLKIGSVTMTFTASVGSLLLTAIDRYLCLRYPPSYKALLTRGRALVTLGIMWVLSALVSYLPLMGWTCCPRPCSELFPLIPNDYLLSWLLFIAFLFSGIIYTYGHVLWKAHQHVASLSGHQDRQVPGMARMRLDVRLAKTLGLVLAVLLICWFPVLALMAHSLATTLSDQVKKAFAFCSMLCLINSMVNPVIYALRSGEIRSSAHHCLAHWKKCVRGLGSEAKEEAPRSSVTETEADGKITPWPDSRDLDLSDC
Nature of the assay: CB2R mediated modulation of cAMP synthesis. It is filed as cell-based. The following applies: found through the use of the above described assays (binding and cAMP); CHO cells expressing human CB2R, forskolin-stimulated cAMP. An outline of the steps: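 CHO cells expressing human CB2R were treated for 30 min at 37 °C with compound in buffer containing 1 mM IBMX, 0.25% BSA and 10 uM forskolin. cAMP was measured after lysis. EC50 is the concentration giving 50% inhibition of forskolin-stimulated cAMP, scaled to the level set by 1 uM CP55940, fitted by four-parameter logistic.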
With `CC(C)(C)c1cc(NC(=O)C(C)(C)S(=O)(=O)c2ccc(Cl)cc2)[nH]n1` [N-(5-tert-Butyl-2H-pyrazol-3-yl)-2-(4-chloro-benzenesulfonyl)-2-methyl-propionamide], the agonistic activity entry is given as “agonistic activity”.

Regarding `CC(C)(C)c1cc(NC(=O)C(C)(C)S(=O)(=O)c2ccc(C(F)(F)F)nc2)[nH]n1` [N-(5-tert-Butyl-2H-pyrazol-3-yl)-2-methyl-2-(6-trifluoromethyl-pyridine-3-sulfonyl)-propionamide], the agonistic activity result was “agonistic activity”.

As to `Cc1nc(NC(=O)C(C)(C)S(=O)(=O)c2ccccc2F)sc1C(C)(C)C` [N-(5-tert-Butyl-4-methyl-thiazol-2-yl)-2-(2-fluoro-benzenesulfonyl)-2-methyl-propionamide], the agonistic activity entry is “agonistic activity”.

As for `Cc1nc(NC(=O)C(C)(C)S(=O)(=O)c2ccc(Cl)c(Cl)c2)sc1C(C)(C)C` [N-(5-tert-Butyl-4-methyl-thiazol-2-yl)-2-(3,4-dichloro-benzenesulfonyl)-2-methyl-propionamide], the agonistic activity entry was “agonistic activity”.

With `Cc1nc(NC(=O)C(C)(C)S(=O)(=O)c2cccc(F)c2)sc1C(C)(C)C` [N-(5-tert-Butyl-4-methyl-thiazol-2-yl)-2-(3-fluoro-benzenesulfonyl)-2-methyl-propionamide], the agonistic activity result is listed as “agonistic activity”.

Turning to `Cc1nc(NC(=O)C(C)(C)S(=O)(=O)c2ccc(Cl)cc2)sc1C(C)(C)C` [N-(5-tert-Butyl-4-methyl-thiazol-2-yl)-2-(4-chloro-benzenesulfonyl)-2-methyl-propionamide], the agonistic activity entry was “agonistic activity”.

As for `COc1ccc(S(=O)(=O)C(C)(C)C(=O)Nc2nc(C)c(C(C)(C)C)s2)cc1` [N-(5-tert-Butyl-4-methyl-thiazol-2-yl)-2-(4-methoxy-benzenesulfonyl)-2-methyl-propionamide], the agonistic activity entry is listed as “agonistic activity”.

For the molecule `Cc1nc(NC(=O)C(C)(C)S(=O)(=O)c2cccc(C(F)(F)F)c2)sc1C(C)(C)C` [N-(5-tert-Butyl-4-methyl-thiazol-2-yl)-2-methyl-2-(3-trifluoromethyl-benzenesulfonyl)-propionamide], the agonistic activity entry is reported as “agonistic activity”.

On to `Cc1nc(NC(=O)C(C)(C)S(=O)(=O)c2ccc(C(F)(F)F)cc2)sc1C(C)(C)C` [N-(5-tert-Butyl-4-methyl-thiazol-2-yl)-2-methyl-2-(4-trifluoromethyl-benzenesulfonyl)-propionamide], for which the agonistic activity entry is “agonistic activity”.

With `Cc1nc(NC(=O)C(C)(C)S(=O)(=O)c2ccc(C(F)(F)F)nc2)sc1C(C)(C)C` [N-(5-tert-Butyl-4-methyl-thiazol-2-yl)-2-methyl-2-(6-trifluoromethyl-pyridine-3-sulfonyl)-propionamide], the agonistic activity result was “agonistic activity”.

Consider `Cc1nc(NC(=O)C(C)(C)S(=O)(=O)c2ccc3ccccc3c2)sc1C(C)(C)C` [N-(5-tert-Butyl-4-methyl-thiazol-2-yl)-2-methyl-2-(naphthalene-2-sulfonyl)-propionamide], for which the agonistic activity entry was “agonistic activity”.

Take `Cc1ccccc1S(=O)(=O)C(C)(C)C(=O)Nc1nc(C)c(C(C)(C)C)s1` [N-(5-tert-Butyl-4-methyl-thiazol-2-yl)-2-methyl-2-(toluene-2-sulfonyl)-propionamide]: the agonistic activity result is “agonistic activity”.

Take `Cc1ccc(S(=O)(=O)C(C)(C)C(=O)Nc2nc(C)c(C(C)(C)C)s2)cc1` [N-(5-tert-Butyl-4-methyl-thiazol-2-yl)-2-methyl-2-(toluene-4-sulfonyl)-propionamide]: the agonistic activity result is reported as “agonistic activity”.

As to `Cc1nc(NC(=O)C(C(C)C)S(=O)(=O)c2ccc(C(F)(F)F)cc2)sc1C(C)(C)C` (stereo not drawn) [N-(5-tert-Butyl-4-methyl-thiazol-2-yl)-3-methyl-2-(4-trifluoromethyl-benzenesulfonyl)-butyramide], the agonistic activity result was “agonistic activity”.

In the case of `CC(C)(C)c1nnc(NC(=O)C(C)(C)S(=O)(=O)c2ccc(Cl)cc2)s1` [N-(5-tert-Butyl-[1,3,4]thiadiazol-2-yl)-2-(4-chloro-benzenesulfonyl)-2-methyl-propionamide], the agonistic activity entry is given as “agonistic activity”.

For the molecule `CC1(C)CCc2cc(S(=O)(=O)C(C)(C)C(=O)Nc3cc(C(C)(C)C)on3)ccc2O1` [N-(5-tert-Butyl-isoxazol-3-yl)-2-(2,2-dimethyl-chroman-6-sulfonyl)-2-methyl-propionamide], the agonistic activity result is recorded as “agonistic activity”.

Regarding `CC(C)(C)c1cc(NC(=O)C(C)(C)S(=O)(=O)c2ccc(Cl)cc2Cl)no1` [N-(5-tert-Butyl-isoxazol-3-yl)-2-(2,4-dichloro-benzenesulfonyl)-2-methyl-propionamide], the agonistic activity result is listed as “agonistic activity”.

In the case of `CC(C)(C)c1cc(NC(=O)C(C)(C)S(=O)(=O)c2ccc(F)cc2F)no1` [N-(5-tert-Butyl-isoxazol-3-yl)-2-(2,4-difluoro-benzenesulfonyl)-2-methyl-propionamide], the agonistic activity result was “agonistic activity”.

Take `CC(C)(C)c1cc(NC(=O)C(C)(C)S(=O)(=O)c2cc(F)ccc2F)no1` [N-(5-tert-Butyl-isoxazol-3-yl)-2-(2,5-difluoro-benzenesulfonyl)-2-methyl-propionamide]: the agonistic activity result is reported as “agonistic activity”.

With `Cc1ccc(S(=O)(=O)C(C)(C)C(=O)Nc2cc(C(C)(C)C)on2)c(F)c1` [N-(5-tert-Butyl-isoxazol-3-yl)-2-(2-fluoro-4-methyl-benzenesulfonyl)-2-methyl-propionamide], the agonistic activity result is given as “agonistic activity”.

With `CC(C)(C)c1cc(NC(=O)C(C)(C)S(=O)(=O)c2ccccc2F)no1` [N-(5-tert-Butyl-isoxazol-3-yl)-2-(2-fluoro-benzenesulfonyl)-2-methyl-propionamide], the agonistic activity result was “agonistic activity”.

As to `CC(C)(C)c1cc(NC(=O)C(C)(C)S(=O)(=O)c2ccc(Cl)c(Cl)c2)no1` [N-(5-tert-Butyl-isoxazol-3-yl)-2-(3,4-dichloro-benzenesulfonyl)-2-methyl-propionamide], the agonistic activity entry was “agonistic activity”.

Take `CC(C)(C)c1cc(NC(=O)C(C)(C)S(=O)(=O)c2ccc(F)c(Cl)c2)no1` [N-(5-tert-Butyl-isoxazol-3-yl)-2-(3-chloro-4-fluoro-benzenesulfonyl)-2-methyl-propionamide]: the agonistic activity entry is given as “agonistic activity”.

For the molecule `CC(C)(C)c1cc(NC(=O)C(C)(C)S(=O)(=O)c2cccc(C#N)c2)no1` [N-(5-tert-Butyl-isoxazol-3-yl)-2-(3-cyano-benzenesulfonyl)-2-methyl-propionamide], the agonistic activity result is “agonistic activity”.

For `COc1ccc(S(=O)(=O)C(C)(C)C(=O)Nc2cc(C(C)(C)C)on2)cc1F` [N-(5-tert-Butyl-isoxazol-3-yl)-2-(3-fluoro-4-methoxy-benzenesulfonyl)-2-methyl-propionamide], the agonistic activity result was “agonistic activity”.

On to `Cc1ccc(S(=O)(=O)C(C)(C)C(=O)Nc2cc(C(C)(C)C)on2)cc1F` [N-(5-tert-Butyl-isoxazol-3-yl)-2-(3-fluoro-4-methyl-benzenesulfonyl)-2-methyl-propionamide], for which the agonistic activity result is recorded as “agonistic activity”.

For `CC(C)(C)c1cc(NC(=O)C(C)(C)S(=O)(=O)c2cccc(F)c2)no1` [N-(5-tert-Butyl-isoxazol-3-yl)-2-(3-fluoro-benzenesulfonyl)-2-methyl-propionamide], the agonistic activity entry is listed as “agonistic activity”.

Take `CC(C)(C)c1cc(NC(=O)C(C)(C)S(=O)(=O)c2cc(Cl)c(Cl)s2)no1` [N-(5-tert-Butyl-isoxazol-3-yl)-2-(4,5-dichloro-thiophene-2-sulfonyl)-2-methyl-propionamide]: the agonistic activity result is recorded as “agonistic activity”.

For `CC(C)(C)c1cc(NC(=O)C(C)(C)S(=O)(=O)c2ccc(Cl)cc2F)no1` [N-(5-tert-Butyl-isoxazol-3-yl)-2-(4-chloro-2-fluoro-benzenesulfonyl)-2-methyl-propionamide], the agonistic activity result is given as “agonistic activity”.

Consider `CC(C)(C)c1cc(NC(=O)C(C)(C)S(=O)(=O)c2ccc(Cl)cc2)no1` [N-(5-tert-Butyl-isoxazol-3-yl)-2-(4-chloro-benzenesulfonyl)-2-methyl-propionamide], for which the agonistic activity entry is recorded as “agonistic activity”.

Turning to `CC(C)(C)c1cc(NC(=O)C(C)(C)S(=O)(=O)c2ccc(C#N)cc2F)no1` [N-(5-tert-Butyl-isoxazol-3-yl)-2-(4-cyano-2-fluoro-benzenesulfonyl)-2-methyl-propionamide], the agonistic activity entry is given as “agonistic activity”.

As to `CC(C)(C)c1cc(NC(=O)C(C)(C)S(=O)(=O)c2ccc(C#N)cc2)no1` [N-(5-tert-Butyl-isoxazol-3-yl)-2-(4-cyano-benzenesulfonyl)-2-methyl-propionamide], the agonistic activity entry is on record as “agonistic activity”.

Take `CC(C)(C)c1cc(NC(=O)C(C)(C)S(=O)(=O)c2ccc(F)cc2)no1` [N-(5-tert-Butyl-isoxazol-3-yl)-2-(4-fluoro-benzenesulfonyl)-2-methyl-propionamide]: the agonistic activity result is “agonistic activity”.

`CC(C)c1ccc(S(=O)(=O)C(C)(C)C(=O)Nc2cc(C(C)(C)C)on2)cc1` [N-(5-tert-Butyl-isoxazol-3-yl)-2-(4-isopropyl-benzenesulfonyl)-2-methyl-propionamide]: the agonistic activity entry is “agonistic activity”.

Consider `CC(C)(C)c1cc(NC(=O)C(C)(C)S(=O)(=O)c2ccc(S(C)(=O)=O)cc2)no1` [N-(5-tert-Butyl-isoxazol-3-yl)-2-(4-methanesulfonyl-benzenesulfonyl)-2-methyl-propionamide], for which the agonistic activity entry is “agonistic activity”.

For the molecule `COc1ccc(S(=O)(=O)C(C)(C)C(=O)Nc2cc(C(C)(C)C)on2)cc1` [N-(5-tert-Butyl-isoxazol-3-yl)-2-(4-methoxy-benzenesulfonyl)-2-methyl-propionamide], the agonistic activity result is “agonistic activity”.
